Experimental findings from ChEMBL document CHEMBL1201862, “PubChem BioAssay data set” (2004) are described below.

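Test compounds were applied to cells in 96-well plates for 48 hours at 5 doses. GI50 = concentration required for 50% inhibition of growth.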 Active and inactive are the calls of the source. Cut-off read from the data, not from the text of the source: active = GI50 up to about 1.1 µM and inactive = higher.

Among the test systems are SNB-75; RPMI-8226; NCI-H460; OVCAR-4; HL-60; COLO 205; U-251; UACC-257; IGROV-1; SF-268; UACC-62; DMS-273; DU-145; OVCAR-8; NCI-H226; K562; SNB-19; SF-295; T47D; HOP-62.
Holding throughout (test): NCI tumour cell line growth inhibition, 48 h

For `O=C1c2cc(CCl)sc2C(=O)c2ccsc21`, the GI50 is 0.192 µM (active) with SNB-75; 0.184 µM (active) in the test on RPMI-8226; 1.31 µM (inactive) in the test on NCI-H460; 0.184 µM (active) in the test with OVCAR-4; 0.0559 µM (active) in the test with HL-60; 1.37 µM (inactive) in the test with COLO 205. For the same compound, the GI50 in the test on U-251 is 0.333 µM (active); in the test on UACC-257, 0.181 µM (active); with IGROV-1, 1.49 µM (inactive); in the test on SF-268 it was 0.195 µM (active); with UACC-62, 0.178 µM (active); in the test with DMS-273, 0.306 µM (active). Moreover, the GI50 is 0.191 µM (active) in the test on DU-145; 0.215 µM (active) in the test with OVCAR-8; 1.69 µM (inactive) in the test with NCI-H226; 0.158 µM (active) in the test with K562; 0.225 µM (active) in the test on SNB-19; 0.0966 µM (active) with SF-295. Moreover, in the test on T47D, the GI50 was 0.241 µM (active).
As to `CS(=O)(=O)OCCN(CCOS(C)(=O)=O)c1ccc(/C=N/N=c2/nc[nH]c3nc[nH]c23)cc1`, the GI50 in the test with SNB-75 is 14.6 µM (inactive); with RPMI-8226, 15.3 µM (inactive); with NCI-H460, 7.76 µM (inactive); with HOP-62, 28.2 µM (inactive); with OVCAR-4, 22.7 µM (inactive); in the test with HL-60, 6.04 µM (inactive). The GI50 in the test on COLO 205 is 17.2 µM (inactive); in the test on U-251, 16.3 µM (inactive); in the test on UACC-257, 19.8 µM (inactive); with IGROV-1 it was 19.1 µM (inactive); in the test on SF-268, 12.9 µM (inactive); with UACC-62, 12.9 µM (inactive). Moreover, the GI50 in the test with DMS-273 was 14.9 µM (inactive); with OVCAR-8 it was 20.7 µM (inactive); in the test on NCI-H226, 19.3 µM (inactive); in the test with K562 it was 24.9 µM (inactive); with SNB-19, 27.6 µM (inactive); in the test with SF-295 it was 14.9 µM (inactive).
On to `CCOC(=O)C(NC(=O)c1ccc(/N=N/N(C)C)cc1)C(C)C` (stereo not given), for which the GI50 in the test with SNB-75, with RPMI-8226, in the test with NCI-H460, in the test on HOP-62, in the test on OVCAR-4 and in the test on HL-60 was > 100 µM (inactive) in each case. Further, the GI50 in the test on COLO 205 is > 100 µM (inactive); in the test with U-251, 31 µM (inactive); in the test on UACC-257, > 100 µM (inactive); with IGROV-1, > 100 µM (inactive); with SF-268, > 100 µM (inactive); with UACC-62, > 100 µM (inactive). The GI50 with DMS-273, with OVCAR-8, in the test with NCI-H226, in the test with K562, with SNB-19 and in the test on SF-295 was > 100 µM (inactive) in each case.
